Experimental data taken from patent publication US20120040976A1, “SMALL MOLECULE IMMUNOMODULATORS FOR ALZHEIMER'S DISEASE” (HUMAN BIOMOLECULAR RESEARCH INSTITUTE, priority 2008, published 2012).

Legend:
[1] = tested on: human monocytic cell line U-937; experiment: Protection of U-937 cells against oxidative stress (H2O2, Trypan-blue viability); type: cell-based
Method: Protective effect of curcumin against oxidative stress. We tested the potential of curcumin to protect cells in vitro under conditions of oxidative stress. Natural curcumin has been reported to have antioxidant activity and to scavenge free radicals, but reports of the direct effects of curcumin or analogs upon cell viability under conditions of oxidative stress are limited. Viability of the human monocytic cell line U-937 was evaluated in the presence of H2O2, plus varying concentrations of natural BDC (range 0-10 nM). We observed that these cells are more sensitive to oxidative stress than are the neuroblastoma SHSY5Y cells, and so reduced concentrations of H2O2 were used for this experiment. […] However, concentrations of BDC between 0.1-10 nM (i.e. similar concentration range inducing maximal gene expression increases +Aβ in these cells) increased 2-hour cell survival rates up to 90%. […] Assays such as Trypan-blue staining, or other biochemical measures of cell toxicity/survival (e.g. ATP levels) may be useful for evaluating curcumin analogs for their neuroprotective effects against oxidative stress and as candidate AD or ALS drugs.

TLR 7 = TLR 7 transcription ratio, AD patient / control PBMCs (qPCR); type: cell-based, human; details: Aβ stimulation
Method: (§1) qPCR reactions of cultured monocyte cDNAs. One μL total cellular cDNA per reaction is used in triplicate reactions for each test gene, and for each culture treatment. SYBR-Green reactions were run on a Continuous Fluorescence real-time thermocycler and analyzed. Cycle threshold (Ct) values are recorded for each replicate reaction, and are then averaged and normalized against mean Ct values from one or more control genes. Fold-expression differences relative to untreated cells are determined using the 2^−ΔΔCt method as previously described. Data from the curcumin concentration range are plotted in order to determine EC50 values (concentrations producing one-half maximal stimulant activity), which are used for comparisons of potency between different compounds. Data are also evaluated for each gene with regard to sensitivity, maximally effective concentration of curcuminoid, response to Aβ, and overall magnitude of fold-expression changes.
(§2) MGAT3 and/or TLR transcription were tested by qPCR in human monocyte cells treated with curcuminoids and compared the results to those treated with vehicle (Table 7). As discussed above, activation or up-regulation of macrophage MGAT3 or TLR's results in many functional outcomes, including the enhancement of […] and removal of Aβ, increased apoptosis, secretion of inflammatory cytokines, and other anti-AD antimicrobial activities. […]

TLR 10 = TLR 10 transcription ratio, AD patient / control PBMCs (qPCR); type: cell-based, human; details: Aβ stimulation
Method: as §1, §2

[2] = Chemical stability (H2O, pH 7.4); type: physicochemical
[3] = Metabolic stability in human S9 fraction; type: in vitro ADME; details: read-out: Half life, t1/2 S9
Average permeability = type: in vitro ADME; details: not told
TLR 8 = TLR 8 transcription ratio, AD patient / control PBMCs (qPCR); type: cell-based, human; details: Aβ stimulation
Method: as §1, §2

TLR3 = TLR3 gene expression by qPCR in U-937 human monocytic cells treated with curcumins plus Aβ; type: cell-based
Method: (§3) Cell culture conditions for monocytic cell lines. Human and mouse monocyte cell lines are grown in RPMI-1640 medium with 10% fetal bovine serum (FBS), plus glutamine and pen/strep. For treatment with compounds (curcuminoids+/−Aβ), replicate sets of 0.5-1.0 mL cultures containing 1-2×10^6 cells are set up in the wells of 48-well tissue culture plates. Both replicate sets have at least one control well receiving no added curcuminoid to provide baseline expression controls for untreated, and Aβ-only treated cells. Remaining wells receive curcuminoid in a range of 10-fold serial dilutions in DMSO, typically from […] Cultures are incubated for 20-24 hours (“overnight”) at 37° C. in atmosphere with 5% CO2. After one overnight, to one of replicate sets of cultures is added Aβ (1-42) peptide to a final concentration of 5 μg/mL.
(§4) RNA isolation and cDNA synthesis. After the first overnight incubation in the presence of curcuminoid, cells from one replicate set of wells are collected by centifugation. RNAs are extracted from pelleted cells using miniprep column kits following manufacturer's protocol for animal cells. […] of total cellular RNA from each well is quantitated using a Nanodrop spectrophotometer, and first-strand total cDNA is prepared from 0.3-1.0 μg RNA by random-hexamer priming. Following the second 20 hr. incubation in the presence of Aβ, RNA extractions and cDNA synthesis are similarly performed.
(§5) Assay development. Gene-specific mRNA levels are determined using a real-time thermocycler, and by normalizing to expression of one or more control genes. Assays for quantifying mRNA levels are based on gene sequences reported in NCBI Genbank. PCR oligonucleotide primers are selected spanning introns to minimize the opportunity for amplication from any contaminating genomic DNA in the RNA preps. Oligonucleotides are typically tested and used at a concentration of 200 nM in qPCR reactions containing SYBR dye. Control reactions include template from cDNA synthesis reactions either + or − reverse transcriptase (RT), as well as no-template controls (ntc). All reactions are performed in triplicate. Reactions are typically run with 40 cycles of 95° C. (10 sec) and 58° C. (30 sec). Melt curves based on incremental 0.5° C. increases are determined for new assays to test for uniformity of amplified products. Reaction conditions are modified as needed depending on initial test results. ‘Working’ assays are selected based on clear RNA-dependent amplification and absence of product in ‘ntc’ reactions. The following assay primers are used: […]
as §1
Data showing in vitro up-regulation of genes associated with Aβ phagocytosis in response to curcumins. Natural curcumins and synthetic analogs were tested in U-937 human monocyte cells in vitro for their ability to modulate expression of the genes MGAT3 and TLRs −2, −3, and −4. […]

TLR 3 = TLR 3 transcription ratio, AD patient / control PBMCs (qPCR); type: cell-based, human; details: Aβ stimulation
In short: (§6)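 Via qPCR on cultured human monocyte cDNA, curcuminoid-treated versus vehicle, with Aβ stimulation, in AD patient and control cells. SYBR-Green triplicate reactions; Ct averaged, normalised to control genes, fold change by 2^−ΔΔCt. EC50 taken from curcumin concentration-response data.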

[4] = Metabolic stability in human liver microsomes; type: in vitro ADME; details: human, read-out: Half life, t1/2 HLM
TLR 9 = TLR 9 transcription ratio, AD patient / control PBMCs (qPCR); type: cell-based, human; details: Aβ stimulation
Method: as §1, §2

TLR 2 = TLR 2 transcription ratio, AD patient / control PBMCs (qPCR); type: cell-based, human; details: Aβ stimulation
In short: as §6

TLR4 = TLR4 gene expression by qPCR in U-937 human monocytic cells treated with curcumins plus Aβ; type: cell-based; details: human monocytic cells (U-937), curcumin plus Aβ
Method: as §3, §4, §5
as §1, with “Data from the curcumin concentration range are plotted in order to determine EC50 values (concentrations producing one-half maximal stimulant activity), which are used for comparisons of potency between different compounds.” left out, “changes. […]” for “changes.”

O=C(/C=C(O)/C=C/c1ccc(O)cc1)/C=C/c1ccc(O)cc1 [Compound 1, 5-Hydroxy-1,7-bis-(4-hydroxy-phenyl)-hepta-1,4,6-trien-3-one, reference compound]
2-hour cell survival rate ([1]; U-937, 100 μM H2O2, BDC 0.1-10 nM, Trypan-blue): up to 90% | Cell viability above 0.1-10 nM concentration range ([1]; U-937, in combination with H2O2): decreased | Relative ratio of TLR 7 transcription in AD patient / control PBMC's (TLR 7): TLR 7 ++ ((++) indicates a ratio of 1.5-2.0) | Relative ratio of TLR 10 transcription in AD patient / control PBMC's (TLR 10): TLR 10 ++ ((++) indicates a ratio of 1.5-2.0) | half-life ([2]; water (aqueous solution), pH 7.4, read-out: Chemical stability t1/2 pH 7.4 (converted)): 14 min | half-life ([2]; water, H2O, read-out: Chemical stability t1/2 H2O (converted)): 60 min | IC50 (Anti-oxidant activity): > 250 µM | half-life [3]: 4 min | Papp (Average permeability): 305 ± 9 ×10⁻⁶ cm/s | Relative ratio of TLR 8 transcription in AD patient / control PBMC's (TLR 8): TLR 8 + ((+) indicates a ratio of 1.0-1.5) | TLR3 expression response (in words) (TLR3; U-937, plus Aβ (FIG. 3)): limited response | Relative gene expression TLR3, increased expression relative to control cells (TLR3; human monocytic cells (U-937), curcumin plus Aβ): + ((+) <20-fold) | Relative ratio of TLR 3 transcription in AD patient / control PBMC's (TLR 3): TLR 3 ++ ((++) indicates a ratio of 1.5-2.0) | half-life [4]: 16.4 min | Relative ratio of TLR 9 transcription in AD patient / control PBMC's (TLR 9): TLR 9 ++ ((++) indicates a ratio of 1.5-2.0) | Relative ratio of TLR 2 transcription in AD patient / control PBMC's (TLR 2): TLR 2 + ((+) indicates a ratio of 1.0-1.5) | Relative gene expression TLR4, increased expression relative to control cells (TLR4): + ((+) <20-fold)
